What was measured:
[1] = instrument: DT, stepped-field
[2] = instrument: DT, single field, calibrated with Agilent tune mix (Agilent)

Row | SMILES | collision cross section (N2) ([1]; [M+H]+) | collision cross section (N2) ([1]; [M+Na]+) | further results
1 | Cn1cnc2ncnc-2c1N [1-Methyladenine] | 128.35 Å² | – | –
2 | Cn1c(N)nc2c(ncn2[C@@H]2O[C@H](CO)[C@@H](O)[C@H]2O)c1=O [1-Methylguanosine] | 168.8 Å² | 180.8 Å² | –
3 | Cc1cccc2ccccc12 [1-methylnaphthalene] | 125.2 Å² | – | –
4 | O=C(O)CNC(=O)c1ccccc1O [2-Hydroxy Hippuric Acid] | – | 154.87 Å² | –
5 | COc1cc2c(cc1O)CC[C@@H]1[C@@H]2CC[C@]2(C)C(=O)CC[C@@H]12 [2-Methoxyestrone] | 174.47 Å² | 201.71 Å² | –
6 | CCCC(=O)C(=O)O [2-Oxovaleric Acid] | – | 131.64 Å² | –
7 | O=C(O)C1=CC(=O)[C@@H](O)[C@H](O)C1 [3-Dehydroshikimic Acid] | 132.73 Å² | – | –
8 | NC(=O)NCCC(=O)O [3-Ureidopropionic Acid] | – | 135.8 Å² | –
9 | Cc1ncc(CO)c(C(=O)O)c1O [4-Pyridoxate] | 137.27 Å² | 151.78 Å² | –
10 | CSC[C@H]1O[C@@H](n2cnc3c(N)ncnc32)[C@H](O)[C@@H]1O [5'-Methylthioadenosine] | 173.03 Å² | 176.54 Å² | –
11 | CCCCC/C=C\C/C=C\C/C=C\C=C\[C@@H](O)CCCC(=O)O [5S-HETE] | – | 188.21 Å² | –
12 | Cn1cnc2[nH]c(N)nc(=O)c21 [7-Methylguanine] | 134.33 Å² | 149.72 Å² | –
13 | CCCCC/C=C\C[C@@H](O)/C=C/C=C\C/C=C\CCCC(=O)O [12R-HETE] | – | 194.4 Å² | –
14 | CCCCCC(O)/C=C/C=C\CCCCCCCC(=O)O (stereo not drawn) [13-HODE] | – | 191.83 Å² | –
15 | CCCCCCCC/C=C\CCCCCCCC(=O)OC[C@@H](O)COP(=O)([O-])OCC[N+](C)(C)C [18:1 Lyso PC] | – | 239.53 Å² | –
16 | CC1=CC(=O)CC(C)(C)C1(O)/C=C/C(C)=C\C(=O)O (stereo not drawn) [Abscisic Acid] | 160.56 Å² | 176.18 Å² | –
17 | CC(=O)OP(=O)(O)O [Acetyl Phosphate] | – | 125.44 Å² | –
18 | CC(=O)SCCNC(=O)CCNC(=O)[C@H](O)C(C)(C)COP(=O)(O)OP(=O)(O)OC[C@H]1O[C@@H](n2cnc3c(N)ncnc32)[C@H](O)[C@@H]1OP(=O)(O)O [Acetyl coenzyme A] | 249.8 Å² | 263.07 Å² | –
19 | Nc1ncnc2c1ncn2[C@@H]1O[C@H](COP(=O)(O)O)[C@@H](O)[C@H]1O [Adenosine 5' Monophosphate] | 173.33 Å² | 180.73 Å² | –
20 | O=c1cc(-c2ccc(O)c(-c3c(O)cc(O)c4c(=O)cc(-c5ccc(O)cc5)oc34)c2)oc2cc(O)cc(O)c12 [Amentoflavone] | 230.16 Å² | – | –
21 | Nc1ccccc1S(=O)(=O)O [Aniline-2-sulfonic Acid] | – | 153.23 Å² | –
22 | C[C@]12CC[C@@H](O)C[C@H]1CC[C@@H]1[C@@H]2[C@@H](O)C[C@@]2(C)[C@H]1CC[C@]2(O)[C@H](O)CO [B-Cortol] | – | 204.59 Å² | –

Row | SMILES | collision cross section (N2) ([1]; [M+H]+) | collision cross section (N2) ([1]; [M+Na]+) | further results
23 | O=C1c2ccccc2-c2cccc3cccc1c23 [Benzanthrone] | 145.71 Å² | – | –
24 | c1ccc2cc3c(cc2c1)-c1cccc2cccc-3c12 [Benzo(k)fluoranthene] | 154.36 Å² | – | –
25 | NCCCNCCCN [Bis(3-aminopropyl)amine] | 128.52 Å² | – | –
26 | Oc1cc(O)c2c(c1)O[C@H](c1ccc(O)c(O)c1)[C@@H](O)C2 [Catechin] | 165.18 Å² | 184.42 Å² | –
27 | OC[C@H]1O[C@@H](O[C@H]2[C@H](O)[C@@H](O)[C@H](O[C@H]3[C@H](O)[C@@H](O)C(O)O[C@@H]3CO)O[C@@H]2CO)[C@H](O)[C@@H](O)[C@@H]1O (stereo partly drawn) [Cellotriose] | – | 215.69 Å² | –
28 | C[C@]12CCC(=O)C=C1CC[C@@H]1[C@@H]2[C@@H](O)C[C@@]2(C)[C@H]1CC[C@]2(O)C(=O)CO [Cortisol] | 188.88 Å² | 213.91 Å² | –
29 | N[C@H]1C(O)O[C@H](CO)[C@@H](O)[C@@H]1O (stereo partly drawn) [D-Glucosamine] | 135.59 Å² | 147.19 Å² | –
30 | CC(C)(CO)[C@@H](O)C(=O)NCCC(=O)O [D-Pantothenic Acid] | 150.17 Å² | 155.27 Å² | –
31 | O=c1c(-c2ccc(O)cc2)coc2cc(O)ccc12 [Daidzein] | 157.23 Å² | 173.13 Å² | –
32 | C[N+](C)(C)CCCC(=O)[O-] [Deoxycarnitine] | 130.4 Å² | – | –
33 | O=c1ccn([C@H]2C[C@H](O)[C@@H](CO)O2)c(=O)[nH]1 [Deoxyuridine] | – | 159.45 Å² | –
34 | COc1c(Cl)ccc(Cl)c1C(=O)O [Dicamba] | – | 157.21 Å² | –
35 | OCCNCCO [Diethanolamine] | 123.33 Å² | – | –
36 | O=C(CO)COP(=O)(O)O [Dihydroxyacetone Phosphate] | – | 144.07 Å² | –
37 | CC/C=C\C/C=C\C/C=C\C/C=C\C/C=C\C/C=C\CCC(=O)O [Docosahexaenoic Acid] | 184.62 Å² | 185.06 Å² | –
38 | COc1ccc(-c2coc3cc(O)ccc3c2=O)cc1 [Formononetin] | – | 176.14 Å² | –
39 | O=C(CO)[C@@H](O)[C@H](O)[C@H](O)COP(=O)(O)O [Fructose-6-phosphate] | – | 156.44 Å² | –
40 | O=C(O)Cc1cnc[nH]1 [Imidazole-4-acetic Acid] | 128.23 Å² | 148.03 Å² | –
41 | COc1cc(-c2[o+]c3cc(O)cc(O)c3cc2O)cc(OC)c1O [Malvidin] | – | – | collision cross section (N2) ([1]; [M]+): 178.55 Å²
42 | C[C@]12CC[C@H](O)CC1=CC[C@@H]1[C@@H]2CC[C@]2(C)C(=O)CC[C@@H]12 [trans-Dehydroandrosterone] | – | – | collision cross section (N2) ([2]; [M+H-H2O]+): 166 Å²; collision cross section (N2) ([2]; [M-H]-): 175.34 Å²
43 | CCCCCC/C=C/CCCCCCCCCC(=O)O [trans-Vaccenic acid] | – | – | collision cross section (N2) ([2]; [M-H]-): 174.95 Å²

Continued, in another order:

Row | collision cross section (N2) ([1]; [M+H]+) | collision cross section (N2) ([1]; [M+Na]+) | SMILES | further results
44 | – | 133.58 Å² | O=C(O)/C=C/C(=O)O [Fumaric Acid] | –
45 | 196.48 Å² | 201.41 Å² | COC(=O)c1c(Cl)nn(C)c1S(=O)(=O)NC(=O)Nc1nc(OC)cc(OC)n1 [Halosulfuron-methyl] | –
46 | 176.54 Å² | 184.45 Å² | COc1ccc([C@@H]2CC(=O)c3c(O)cc(O)cc3O2)cc1O [Hesperetin] | –
47 | 146.82 Å² | 154.06 Å² | O=C(O)CNC(=O)c1ccccc1 [Hippuric Acid] | –
48 | – | 149.57 Å² | COc1cc(CC(=O)O)ccc1O [Homovanillic Acid] | –
49 | – | 184.05 Å² | CCCCC/C=C\C/C=C\CCCCCCCCCC(=O)O [Icosadienoic Acid] | –
50 | 169.27 Å² | 174.6 Å² | Cc1ccc2c(c1)[C@H](Nc1nc(N)nc(C(C)F)n1)[C@@H](C)C2 (stereo partly drawn) [Indaziflam] | –
51 | 138.11 Å² | – | O=C(O)Cc1c[nH]c2ccccc12 [Indoleacetic Acid] | –
52 | 183.55 Å² | 195.98 Å² | COc1ccc2c(c1)c(CC(=O)O)c(C)n2C(=O)c1ccc(Cl)cc1 [Indomethacin] | –
53 | – | 210.83 Å² | OC[C@H]1O[C@H](OC[C@H]2O[C@H](OC[C@H]3OC(O)[C@H](O)[C@@H](O)[C@@H]3O)[C@H](O)[C@@H](O)[C@@H]2O)[C@H](O)[C@@H](O)[C@@H]1O (stereo partly drawn) [Isomaltotriose] | –
54 | 140.99 Å² | 154.12 Å² | O=C(O)c1cc(=O)c2ccccc2[nH]1 [Kynurenic Acid] | –
55 | 151.07 Å² | – | Nc1ccccc1C(=O)CC(N)C(=O)O (stereo not drawn) [Kynurenine] | –
56 | – | 141.86 Å² | OC1OC[C@H](O)[C@H](O)[C@H]1O (stereo partly drawn) [L-Arabinose] | –
57 | – | 146.11 Å² | O=C1O[C@H]([C@@H](O)CO)C(O)=C1O [L-Ascorbic Acid] | –
58 | 129.79 Å² | – | NCCC[C@H](N)C(=O)O [L-Ornithine] | –
59 | – | 146.3 Å² | C[C@@H]1OC(O)[C@H](O)[C@H](O)[C@H]1O (stereo partly drawn) [L-Rhamnose] | –
60 | – | 143.47 Å² | O=C(O)[C@@H](O)[C@@H](O)[C@@H](O)CO [L-Ribonic Acid] | –
61 | 137.67 Å² | – | C[Se]CC[C@H](N)C(=O)O [L-Selenomethionine] | –
62 | 154.22 Å² | – | N[C@@H](Cc1c[nH]c2ccccc12)C(=O)O [L-Tryptophan] | –
63 | 134.28 Å² | 144.07 Å² | CC(C)[C@H](N)C(=O)O [L-Valine] | –
64 | – | 237.34 Å² | CCCCCCCC/C=C\CCCCCCCC(=O)OC[C@@H](O)COP(=O)([O-])OCC[N+](C)(C)C [LPC 18:1] | –
65 | 236.8 Å² | 238.37 Å² | CCCCCCCCCCCCCCCC/C=C\OC[C@@H](O)COP(=O)([O-])OCC[N+](C)(C)C [LPC(p18:0)] | –
66 | – | 180.1 Å² | OC[C@H]1O[C@@H](O[C@@H]2[C@@H](CO)O[C@](O)(CO)[C@H]2O)[C@H](O)[C@@H](O)[C@H]1O [Lactulose] | –
67 | 196.62 Å² | – | O=c1c2cc(O)c(O)cc2oc2cc(O)c([C@@H]3O[C@H](CO)[C@@H](O)[C@H](O)[C@H]3O)c(O)c12 [Mangiferin] | –
68 | 138.94 Å² | 160.36 Å² | C=CCc1ccc(OC)c(OC)c1 [Methyleugenol] | –

Source: the C3SDB collision cross section collection
